# Literature values in patent US20130109633A1, “CB-183,315 Compositions and Related Methods” (Cubist Pharmaceuticals, Inc., priority 2011, published 2013).
# Tested on: a broad spectrum of bacteria, including drug-resistant bacteria and C. difficile
substance,measurement,value
"CB-183,315",antibacterial activity,antibacterial activity against a broad spectrum of bacteria
same,bacteriacidal activity,exhibits bacteriacidal activity
